The results in this text go back to ChEMBL document CHEMBL5055663, “Histamine H3 receptor antagonists with peptidomimetic (keto)piperazine structures to inhibit Aβ oligomerisation” (Bioorg Med Chem, 2021).

Activity calls are given as the source filed them. No cut-off for these calls is given here.

In test [1] the target is T1, Amyloid-beta precursor protein (Homo sapiens, UniProt P05067). As to the kind of experiment: Binding affinity to CM-5 sensor chip immobilized beta-amyloid monomer (1 to 42) (unknown origin) at 200 uM by SPR analysis.
T1 sequence (P05067 whole entry): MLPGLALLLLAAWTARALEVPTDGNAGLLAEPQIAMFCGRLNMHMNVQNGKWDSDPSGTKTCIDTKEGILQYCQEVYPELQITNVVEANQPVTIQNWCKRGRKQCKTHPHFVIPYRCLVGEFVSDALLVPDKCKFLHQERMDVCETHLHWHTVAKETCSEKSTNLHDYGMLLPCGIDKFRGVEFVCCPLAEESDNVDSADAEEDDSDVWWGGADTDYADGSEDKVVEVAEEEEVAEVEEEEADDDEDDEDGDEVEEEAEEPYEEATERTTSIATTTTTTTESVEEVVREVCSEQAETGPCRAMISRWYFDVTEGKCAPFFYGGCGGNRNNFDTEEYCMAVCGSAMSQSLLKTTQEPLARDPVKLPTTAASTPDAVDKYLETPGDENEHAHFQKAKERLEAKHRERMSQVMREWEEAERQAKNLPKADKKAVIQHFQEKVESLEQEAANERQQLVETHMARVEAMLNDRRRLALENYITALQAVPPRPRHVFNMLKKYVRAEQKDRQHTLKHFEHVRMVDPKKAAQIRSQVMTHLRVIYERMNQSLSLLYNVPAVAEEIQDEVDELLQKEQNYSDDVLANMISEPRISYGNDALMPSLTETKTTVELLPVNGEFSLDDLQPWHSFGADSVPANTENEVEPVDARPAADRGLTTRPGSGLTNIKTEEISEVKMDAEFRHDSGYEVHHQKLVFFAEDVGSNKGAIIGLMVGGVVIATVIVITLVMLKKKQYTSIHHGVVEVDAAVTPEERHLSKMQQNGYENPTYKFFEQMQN
Test [2] concerns the target T2, Histamine H3 receptor (Homo sapiens, UniProt Q9Y5N1). As to the kind of experiment: Displacement of [3H]Nalpha-methylhistamine from recombinant human histamine H3 receptor expressed in HEK293 cells incubated for 90 mins by competition binding assay. It is filed as cell-based. In general terms: In a radioligand displacement assay an active substance lowers the binding of a labelled ligand.

The target of test [3] is T2, Histamine H3 receptor. In words: Antagonist activity at histamine H3 receptor (unknown origin).
Test [4] addresses T1, Amyloid-beta precursor protein. As to the kind of experiment: Binding affinity to CM-5 sensor chip immobilized beta-amyloid monomer (1 to 42) (unknown origin) assessed as dissociation constant by SPR analysis. A general note: In SPR one partner is held on a chip, and binding of the other changes the refractive index at the surface.

T2 sequence (Q9Y5N1 whole entry): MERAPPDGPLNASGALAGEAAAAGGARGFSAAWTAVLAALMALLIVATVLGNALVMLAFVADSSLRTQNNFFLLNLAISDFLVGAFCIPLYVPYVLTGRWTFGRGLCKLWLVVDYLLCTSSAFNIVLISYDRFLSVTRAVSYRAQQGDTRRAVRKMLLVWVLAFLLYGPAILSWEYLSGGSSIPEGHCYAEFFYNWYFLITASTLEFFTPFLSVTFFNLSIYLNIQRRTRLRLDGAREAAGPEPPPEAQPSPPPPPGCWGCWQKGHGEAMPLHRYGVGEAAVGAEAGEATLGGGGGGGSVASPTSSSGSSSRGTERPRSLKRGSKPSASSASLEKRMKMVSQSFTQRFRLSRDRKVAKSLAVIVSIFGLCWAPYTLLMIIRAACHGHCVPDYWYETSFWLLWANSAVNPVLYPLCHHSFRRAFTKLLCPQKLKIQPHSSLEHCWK

As a reminder, the Ki is the equilibrium dissociation constant of an inhibitor or competing ligand from its target. Turning to `c1cc(OCCCN2CCCCC2)ccc1C[C@H]1CNCCN1`, the result in test [1] was inactive. The Ki on Histamine H3 receptor [2] was determined as 0.002 µM. At Histamine H3 receptor [3], `CN1C[C@H]2CCN(c3ccc(-c4ccc(-n5ncccc5=O)cc4)cc3)[C@H]2C1` had a Ki of 0.002 µM. Take `CC(C)[C@@H]1NC(=O)[C@H](Cc2ccc(OCCCN3CCCCC3)cc2)NC1=O`: the result in test [1] was inactive. The inhibition constant (Ki) at Histamine H3 receptor [2] turned out to be 0.219 µM.

By Kd is commonly meant the constant that tells how readily two partners part at equilibrium. Turning to `O=C1N[C@@H](Cc2ccc(OCCCN3CCCCC3)cc2)C(=O)N[C@H]1Cc1ccccc1`, the outcome in test [1] was inactive. The Kd in test [4] amounted to 12000 µM. The Ki at Histamine H3 receptor [2] was 0.039 µM. For the compound `O=C1CNC(=O)[C@@H](Cc2ccc(OCCCN3CCCCC3)cc2)N1`, the outcome in test [1] was inactive. The Ki on Histamine H3 receptor [2] came to 0.158 µM. On the same counts, the results for `O=c1[nH]/c(=C\c2ccc(OCCCN3CCCCC3)cc2)c(=O)[nH]/c1=C\c1ccccc1` are “inactive” and 0.0038 µM. Consider `c1ccc(C[C@H]2CN[C@@H](Cc3ccc(OCCCN4CCCCC4)cc3)CN2)cc1`, for which the outcome in test [1] was inactive. The Ki on Histamine H3 receptor [2] came out at 0.0011 µM. In the case of `O=C1CN(C(=O)c2ccc(OCCCN3CCCCC3)cc2)CCN1Cc1ccccc1`, the Ki on Histamine H3 receptor [2] amounted to 0.0049 µM. Consider `O=C1CNC(=O)/C(=C/c2ccc(OCCCN3CCCCC3)cc2)N1`, for which the result in test [1] was inactive. For the same compound, the inhibition constant (Ki) on Histamine H3 receptor [2] is 0.0223 µM.

As to `O=C1CN(C(=O)c2ccc(OCCCN3CCCCC3)cc2)CCN1`, the Ki on Histamine H3 receptor [2] was 0.0028 µM. In the case of `O=C1CN(Cc2ccc(OCCCN3CCCCC3)cc2)CCN1Cc1ccccc1`, the Kd in test [4] was 51.6 µM. In addition, the Ki at Histamine H3 receptor [2] worked out at 0.0113 µM. For the compound `O=C1CN(Cc2ccc(OCCCN3CCCCC3)cc2)C(=O)CN1`, the equilibrium dissociation constant (Kd) in test [4] was 1550 µM. Moreover, the Ki on Histamine H3 receptor [2] came out at 0.0049 µM. In the case of `O=C1CNC(=O)[C@H](Cc2ccc(OCCCN3CCCCC3)cc2)N1`, the result in test [1] was inactive. Moreover, the Ki at Histamine H3 receptor [2] is 0.074 µM. In the case of `O=C1N[C@@H](Cc2ccccc2)C(=O)N/C1=C\c1ccc(OCCCN2CCCCC2)cc1` (stereo in doubt), the result in test [1] was inactive. In addition, at Histamine H3 receptor [2], the Ki is 0.002 µM. On the same counts, the results for `CC(=O)N1C(=O)/C(=C/c2ccc(OCCCN3CCCCC3)cc2)NC(=O)[C@@H]1Cc1ccccc1` are “inactive” and 0.0044 µM. On to `CC(=O)N1CC(=O)N/C(=C\c2ccc(OCCCN3CCCCC3)cc2)C1=O`, for which the outcome in test [1] was inactive. Besides, at Histamine H3 receptor [2], the Ki turned out to be 0.0038 µM. `C[C@@H]1NC(=O)[C@H](Cc2ccc(OCCCN3CCCCC3)cc2)NC1=O`: the outcome in test [1] was inactive. In addition, the Ki at Histamine H3 receptor [2] came out at 0.159 µM.
